Like-named read-outs stand apart in the source and are kept apart here. *1 amine or outer side, *2 acyl side, *3 side chain or, on linkers, in order; H or OH if unused. Where a SMILES comes first, the peptide text is derived from it. Bridges are numbered along the chain shown (N, C = ends). [ ]: non-standard residue; d: D form. The star is where a group is joined. pTerphenylCO(4''-OnC5H11) = CCCCCOc1ccc(-c2ccc(-c3ccc(C(=O)*)cc3)cc2)cc1; Orn(4R-OH,5R-OH) = O=C([C@H](C[C@@H](O)[C@@H](O)N[*:3])N[*:1])[*:2]; hTyr(3S-OH,4S-OH) = N[C@H](C(=O)O)[C@H](O)[C@@H](O)c1ccc(O)cc1; Pro(3S-OH,4S-Me) = C[C@H]1CN[C@H](C(=O)O)[C@H]1O; Hyp = O=C(O)[C@@H]1C[C@@H](O)CN1
Key:
[1] = tested on: ZIKV-RLuc (Cambodian strain FSS13025); experiment: microbe, parasite or virus in culture; format: cell-based, Zika virus
[2] = tested on: wild-type ZIKV (Ugandan MR766 strain) in Vero cells; experiment: ZIKV cytopathic effect (CPE) inhibition qHTS assay, CellTiter-Glo readout; format: cell-based, Zika virus
[3] = Zika virus, Vero, read-out: Log AC50 (M) (converted)

Compound	CC-v2 (curve class classification v2 of the dose response curve) [1]	Max Resp (difference between neutral response and compound response for highest compound concentration) [1]	CC-v2 (curve class classification of the dose response curve) [2]	Efficacy [2]	AC50 ([2]; Zika virus, Vero)	AC50 [2, 3]	other results
CC(C)COCC(CN(Cc1ccccc1)c1ccccc1)N1CCCC1 (centres unmarked) [NCGC00015155-11]	-2.2	-86.237	–	–	–	–	Efficacy (difference between neutral response and maximum compound response) [1]: -53.208
COc1cc2nc(N3CCN(C(=O)c4ccco4)CC3)nc(N)c2cc1OC [NCGC00016740-18]	–	-5.44	–	–	–	–	–
CN1CCN(CCCN2c3ccccc3Sc3ccc(S(=O)(=O)N(C)C)cc32)CC1.CS(=O)(=O)O.CS(=O)(=O)O [NCGC00017040-01]	4	-22.476	–	–	–	–	Efficacy (difference between neutral response and maximum compound response) [1]: -28.971
CCN(CC)Cc1cc(Nc2ccnc3cc(Cl)ccc23)ccc1O [NCGC00017063-03]	4	20.219	–	–	–	–	Efficacy (difference between neutral response and maximum compound response) [1]: 28.757
CCOc1cc(N)c(Cl)cc1C(=O)NCC1CN(Cc2ccc(F)cc2)CCO1 (centres unmarked) [NCGC00160527-05]	4	-14.706	–	–	–	–	Efficacy (difference between neutral response and maximum compound response) [1]: -16.441
CN1CCC(=C2c3ccccc3CCc3sccc32)CC1 [NCGC00163169-02]	4	-9.44	–	–	–	–	Efficacy (difference between neutral response and maximum compound response) [1]: 14.14
Cc1cccc(C)c1OCC(=O)N[C@@H](Cc1ccccc1)[C@@H](O)C[C@H](Cc1ccccc1)NC(=O)[C@H](C(C)C)N1CCCNC1=O [NCGC00164576-04]	4	-20.627	–	–	–	–	–
CCCCCCCCCCC[C@@H](C[C@@H]1OC(=O)[C@H]1CCCCCC)OC(=O)C(CC(C)C)NC=O (some centres unmarked) [NCGC00165856-03]	-3	-33.733	–	–	–	–	Efficacy (difference between neutral response and maximum compound response) [1]: 0
CC[C@@]1([C@@H]2O[C@@H]([C@H]3O[C@@](O)(CO)[C@H](C)C[C@@H]3C)C[C@@H]2C)CC[C@H]([C@]2(C)CC[C@]3(C[C@H](O)[C@@H](C)[C@@H]([C@@H](C)[C@@H](OC)[C@H](C)C(=O)O)O3)O2)O1 [NCGC00179454-04]	4	-20.473	–	–	–	–	Efficacy (difference between neutral response and maximum compound response) [1]: 29.905
CC1(C)C=Cc2c(ccc(C(=O)/C=C/c3ccccc3)c2O)O1 [NCGC00187466-03]	4	-35.49	–	–	–	–	–
CC[C@@H]1C(=O)N(C)c2cnc(Nc3ccc(C(=O)NC4CCC(N5CCN(CC6CC6)CC5)CC4)cc3OC)nc2N1C(C)C (some centres unmarked) [NCGC00263087-01]	4	10.387	–	–	–	–	Efficacy (difference between neutral response and maximum compound response) [1]: 12.227
CC(C)(N)C(=O)N[C@H](COCc1ccccc1)C(=O)N1CCC2(CC1)CN([S+](C)(=O)[O-])c1ccccc12 [NCGC00263115-01]	4	-0.591	–	–	–	–	Efficacy (difference between neutral response and maximum compound response) [1]: -25.4
CCCCCOc1ccc(-c2ccc(-c3ccc(C(=O)N[C@H]4C[C@@H](O)[C@@H](O)NC(=O)[C@@H]5[C@@H](O)[C@@H](C)CN5C(=O)[C@H]([C@@H](C)O)NC(=O)[C@H]([C@H](O)[C@@H](O)c5ccc(O)cc5)NC(=O)[C@@H]5C[C@@H](O)CN5C(=O)[C@H]([C@@H](C)O)NC4=O)cc3)cc2)cc1 [NCGC00386349-01] ({pTerphenylCO(4''-OnC5H11)}-[Orn(4R-OH,5R-OH)]T[Hyp][hTyr(3S-OH,4S-OH)]T[Pro(3S-OH,4S-Me)]; lactam 1-C)	–	–	-2.2	-31.74	1.26e-05 M	1.26e-05 M	–
CN(CC[C@H](N)CC(=O)N[C@H]1C=C[C@@H](n2ccc(N)nc2=O)O[C@@H]1C(=O)O)C(=N)N [NCGC00386414-01]	–	–	-1.1	-84.972	2.66e-06 M	2.66e-06 M	–
CCOCCn1nc(CC)c2nc(N3CCC(C(=O)O)CC3)nc(Nc3cc(C)ccn3)c21 [NCGC00386619-01]	–	–	–	-25.995	4.11e-05 M	4.11e-05 M	–
CC(C)C[C@H](CO)Nc1nc(S[C@@H](C)c2ccccc2)nc2nc(N)sc12 [NCGC00386735-01]	–	–	–	-23.549	5.17e-05 M	5.17e-05 M	–
C=C(C)[C@@H]1CC=C(COC(=O)NC(=O)c2ncn3c(=O)n(C)nnc23)CC1 [NCGC00386754-01]	–	–	-3	-41.908	6.51e-05 M	6.51e-05 M	–

Compound	CC-v2 (curve class classification v2 of the dose response curve) [1]	Max Resp (difference between neutral response and compound response for highest compound concentration) [1]	CC-v2 (curve class classification of the dose response curve) [2]	Efficacy [2]	AC50 ([2]; Zika virus, Vero)	AC50 [2, 3]	other results
Cc1cc(N2CCN(C(=O)Oc3ccc(-c4ccccc4)cn3)CC2)c2ccccc2n1 [NCGC00386928-01]	–	–	-3	-62.282	–	–	–
Cc1cc(C(=O)Nc2cc(Nc3ccc4c(/C=C/c5ccccn5)[nH]nc4c3)ccc2F)n(C)n1 [NCGC00387023-01]	–	–	–	-55.32	3.66e-05 M	3.66e-05 M	–
CC1(C)CC=C(C#Cc2ccccc2)c2cc(/C=C/c3ccc(C(=O)O)cc3)ccc21 [NCGC00387103-01]	–	–	-2.2	-97.274	5.17e-05 M	5.17e-05 M	–
CCOC(=O)C1=C(N)Oc2ccc(Cl)cc2C1C(C#N)C(=O)OCC (centres unmarked) [NCGC00387181-02]	–	–	-2.2	-45.481	3.66e-05 M	3.66e-05 M	–
Cc1cc(C(=O)Nc2cccc(C(=O)Nc3cccc(C(F)(F)F)c3)c2)on1 [NCGC00387256-02]	–	–	–	-18.226	7.31e-05 M	7.31e-05 M	–
Cc1cc2c(F)c(Oc3ncnn4cc(OCC(C)OC(=O)C(C)N)c(C)c34)ccc2[nH]1 (centres unmarked) [NCGC00389340-01]	–	–	–	-57.426	–	–	Curve class [2]: -3; Emax ([2]; Zika virus, Vero, read-out: Max response): -49.7%
Cc1cc(OCCC[S+](C)(=O)[O-])cc(C)c1-c1cccc(COc2ccc3c(c2)OCC3CC(=O)O)c1 (centres unmarked) [NCGC00389617-01]	–	–	-3	-41.849	2.31e-05 M	2.31e-05 M	–
Cc1cc2c(F)c(Oc3ncnn4cc(OCC(C)O)c(C)c34)ccc2[nH]1 (centres unmarked) [NCGC00389770-01]	–	–	–	-29.933	6.51e-05 M	6.51e-05 M	–
COc1cc(N(C)CCN(C)C)c(N)cc1Nc1nccc(-c2cn(C)c3ccccc23)n1 [NCGC00390638-01]	–	–	-3	-48.353	6.51e-05 M	6.51e-05 M	–
CCC(=C(c1ccc(OCCN2CCCC2)cc1)c1ccc(OCCN2CCCC2)cc1)c1ccccc1 [NCGC00408918-01]	–	–	-3	-39.621	5.8e-05 M	5.8e-05 M	–
C=CC(=O)N1CCCN(c2cc(NCCC(=O)O)nc(-c3ccccn3)n2)CC1 [NCGC00420854-01]	–	–	–	-33.164	5.8e-05 M	5.8e-05 M	–
C=Cc1cc2oc(-c3ccc(O)c(F)c3)nc2cc1O [NCGC00485115-01]	–	–	–	-24.649	6.51e-05 M	6.51e-05 M	–
COC(=O)C1=C(C)NC(C)=C(C(=O)OC)C1c1cccc(NC(=O)NCCCN2CCC(c3cccc(OC)c3)CC2)c1 [NCGC00485144-01]	–	–	–	-27.731	7.31e-05 M	7.31e-05 M	–
C[C@H]1CCC[C@H](O)CCC/C=C/c2cc(O)cc(O)c2C(=O)O1 [NCGC00485224-01]	–	–	-3	-58.539	6.51e-05 M	6.51e-05 M	–
C[C@@]1(O)[C@H](O)[C@@H](CO)O[C@H]1n1cnc2c(=O)[nH]c(N)nc21 [NCGC00485409-01]	–	–	–	-27.977	3.66e-05 M	3.66e-05 M	–
O=C(O)c1ccc2c(c1)nc(Nc1cccc(Cl)c1)c1ccncc12 [NCGC00485907-01]	–	–	–	-41.903	6.51e-05 M	6.51e-05 M	–
C/C(=N\NC(=N)N)c1cc(NC(=O)CCCCCCCCC(=O)Nc2cc(/C(C)=N/NC(=N)N)cc(/C(C)=N/NC(=N)N)c2)cc(/C(C)=N/NC(=N)N)c1 [NCGC00487056-01]	–	–	-2.2	-56.895	5.8e-05 M	5.8e-05 M	–

— article PMC8765781, “A platform of assays for the discovery of anti-Zika small-molecules with activity in a 3D-bioprinted outer-blood-retina model” (PLoS ONE, 2022)
